Experimental data reported in PubChem BioAssay AID2060904 (Molecular Pharmacology Branch, DTP, NCI, 2025).
Blank lines part the entries; values can stand above or below the compound they belong to.

Tested on: 349418-098-R-PDC complex spheroid viability
Test: Anticancer human tumor 349418-098-R-PDC patient-derived lung adenocarcinoma cell line growth inhibition [RAS]
Settings: for IC50: curve of first compound; for viability, T/C: stronger effect = lower value
Method in brief: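 Tumour cells grown as complex spheroids with HUVEC endothelial cells and mesenchymal stem cells, treated with RAS pathway inhibitor combinations. Each agent spans half-log steps from near clinical Cmax, or 10 microM where Cmax is unknown.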

[1] = second compound 0.00316 µM, first compound 0.00316 µM
[2] = second compound 0.00316 µM, first compound 0.01 µM
[3] = second compound 0.00316 µM, first compound 0.0316 µM
[4] = second compound 0.00316 µM, first compound 0.1 µM
[5] = second compound 0.00316 µM, first compound 0.316 µM
[6] = second compound 0.00316 µM, first compound 1 µM
[7] = second compound 0.01 µM, first compound 0.00316 µM
[8] = second compound 0.01 µM, first compound 0.01 µM
[9] = second compound 0.01 µM, first compound 0.0316 µM
[10] = second compound 0.01 µM, first compound 0.1 µM
[11] = second compound 0.01 µM, first compound 0.316 µM
[12] = second compound 0.01 µM, first compound 1 µM
[13] = second compound 0.0316 µM, first compound 0.00316 µM
[14] = second compound 0.0316 µM, first compound 0.01 µM
[15] = second compound 0.0316 µM, first compound 0.0316 µM
[16] = second compound 0.0316 µM, first compound 0.1 µM
[17] = second compound 0.0316 µM, first compound 0.316 µM
[18] = second compound 0.0316 µM, first compound 1 µM
[19] = second compound 0.1 µM, first compound 0.00316 µM
[20] = second compound 0.1 µM, first compound 0.01 µM
[21] = second compound 0.1 µM, first compound 0.0316 µM
[22] = second compound 0.1 µM, first compound 0.1 µM
[23] = second compound 0.1 µM, first compound 0.316 µM
[24] = second compound 0.1 µM, first compound 1 µM
[25] = second compound 0.316 µM, first compound 0.00316 µM
[26] = second compound 0.316 µM, first compound 0.01 µM
[27] = second compound 0.316 µM, first compound 0.0316 µM
[28] = second compound 0.316 µM, first compound 0.1 µM
[29] = second compound 0.316 µM, first compound 0.316 µM
[30] = second compound 0.316 µM, first compound 1 µM
[31] = second compound 1 µM, first compound 0.00316 µM
[32] = second compound 1 µM, first compound 0.01 µM
[33] = second compound 1 µM, first compound 0.0316 µM
[34] = second compound 1 µM, first compound 0.1 µM
[35] = second compound 1 µM, first compound 0.316 µM
[36] = second compound 1 µM, first compound 1 µM
[37] = second compound 0.000949 µM, first compound 0.000949 µM
[38] = second compound 0.000949 µM, first compound 0.003 µM
[39] = second compound 0.000949 µM, first compound 0.00949 µM
[40] = second compound 0.000949 µM, first compound 0.03 µM
[41] = second compound 0.000949 µM, first compound 0.0949 µM
[42] = second compound 0.000949 µM, first compound 0.3 µM
[43] = second compound 0.003 µM, first compound 0.000949 µM
[44] = second compound 0.003 µM, first compound 0.003 µM
[45] = second compound 0.003 µM, first compound 0.00949 µM
[46] = second compound 0.003 µM, first compound 0.03 µM
[47] = second compound 0.003 µM, first compound 0.0949 µM
[48] = second compound 0.003 µM, first compound 0.3 µM
[49] = second compound 0.00949 µM, first compound 0.000949 µM
[50] = second compound 0.00949 µM, first compound 0.003 µM
[51] = second compound 0.00949 µM, first compound 0.00949 µM
[52] = second compound 0.00949 µM, first compound 0.03 µM
[53] = second compound 0.00949 µM, first compound 0.0949 µM
[54] = second compound 0.00949 µM, first compound 0.3 µM
[55] = second compound 0.03 µM, first compound 0.000949 µM
[56] = second compound 0.03 µM, first compound 0.003 µM
[57] = second compound 0.03 µM, first compound 0.00949 µM
[58] = second compound 0.03 µM, first compound 0.03 µM
[59] = second compound 0.03 µM, first compound 0.0949 µM
[60] = second compound 0.03 µM, first compound 0.3 µM
[61] = second compound 0.0949 µM, first compound 0.000949 µM
[62] = second compound 0.0949 µM, first compound 0.003 µM
[63] = second compound 0.0949 µM, first compound 0.00949 µM
[64] = second compound 0.0949 µM, first compound 0.03 µM
[65] = second compound 0.0949 µM, first compound 0.0949 µM
[66] = second compound 0.0949 µM, first compound 0.3 µM
[67] = second compound 0.3 µM, first compound 0.000949 µM
[68] = second compound 0.3 µM, first compound 0.003 µM
[69] = second compound 0.3 µM, first compound 0.00949 µM
[70] = second compound 0.3 µM, first compound 0.03 µM
[71] = second compound 0.3 µM, first compound 0.0949 µM
[72] = second compound 0.3 µM, first compound 0.3 µM
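Note: spheroids exposed to compound for seven days before viability readout.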

IC50 (second compound 0.00316 µM): < 3.16 nM
IC50 (second compound 0.01 µM): < 3.16 nM
IC50 (second compound 0.0316 µM): < 3.16 nM
IC50 (second compound 0.1 µM): < 3.16 nM
IC50 (second compound 0.316 µM): < 3.16 nM
IC50 (second compound 1 µM): < 3.16 nM
Structure (SMILES): O=C(c1ccc(F)c(F)c1Nc1ccc(I)cc1F)N1CC(O)([C@@H]2CCCCN2)C1 + C=CC(=O)N1CCN(c2nc(OCC3CCCN3C)nc3c(F)c(-c4nc(N)cc(C)c4C(F)(F)F)c(Cl)cc23)C(C)C1
viability, T/C [1]: 39.9%
viability, T/C [2]: 32.3%
viability, T/C [3]: 28.5%
viability, T/C [4]: 12.9%
viability, T/C [5]: 5.88%
viability, T/C [6]: 4.12%
viability, T/C [7]: 37.7%
viability, T/C [8]: 28.2%
viability, T/C [9]: 24.3%
viability, T/C [10]: 13.2%
viability, T/C [11]: 7.23%
viability, T/C [12]: 4.54%
viability, T/C [13]: 39%
viability, T/C [14]: 32.8%
viability, T/C [15]: 28.5%
viability, T/C [16]: 15.1%
viability, T/C [17]: 6.99%
viability, T/C [18]: 4.79%
viability, T/C [19]: 36.4%
viability, T/C [20]: 33.6%
viability, T/C [21]: 26.6%
viability, T/C [22]: 13.5%
viability, T/C [23]: 6.66%
viability, T/C [24]: 4.97%
viability, T/C [25]: 29.1%
viability, T/C [26]: 32.5%
viability, T/C [27]: 32.4%
viability, T/C [28]: 12%
viability, T/C [29]: 7.61%
viability, T/C [30]: 5.27%
viability, T/C [31]: 42.3%
viability, T/C [32]: 38.8%
viability, T/C [33]: 26.8%
viability, T/C [34]: 16.4%
viability, T/C [35]: 7.89%
viability, T/C [36]: 5%

IC50 (second compound 0.000949 µM): 2.21 nM
IC50 (second compound 0.003 µM): 2.57 nM
IC50 (second compound 0.00949 µM): 2.86 nM
IC50 (second compound 0.03 µM): 2.62 nM
IC50 (second compound 0.0949 µM): 2.42 nM
IC50 (second compound 0.3 µM): 1.43 nM
Structure (SMILES): CCc1c2c(nc3ccc(O)cc13)-c1cc3c(c(=O)n1C2)COC(=O)[C@]3(O)CC + CCn1c(-c2cccnc2C(C)OC)c2c3cc(ccc31)N1CCOC(CC(NC(=O)C(C(C)C)N(C)C(=O)C3(F)CCN(C(=O)C#CC(C)(C)N(C)C)CC3)C(=O)N3CCCC(N3)C(=O)OCC(C)(C)C2)C1
viability, T/C [37]: 77.2%
viability, T/C [38]: 40.1%
viability, T/C [39]: 10.9%
viability, T/C [40]: 4.7%
viability, T/C [41]: 2.54%
viability, T/C [42]: 2.43%
viability, T/C [43]: 99.5%
viability, T/C [44]: 42.5%
viability, T/C [45]: 13.3%
viability, T/C [46]: 6.22%
viability, T/C [47]: 2.99%
viability, T/C [48]: 2.08%
viability, T/C [49]: 98.7%
viability, T/C [50]: 47.9%
viability, T/C [51]: 15.6%
viability, T/C [52]: 5.26%
viability, T/C [53]: 2.91%
viability, T/C [54]: 2.15%
viability, T/C [55]: 86.4%
viability, T/C [56]: 45.1%
viability, T/C [57]: 14.1%
viability, T/C [58]: 5.2%
viability, T/C [59]: 2.57%
viability, T/C [60]: 2.19%
viability, T/C [61]: 94.7%
viability, T/C [62]: 39.9%
viability, T/C [63]: 11.3%
viability, T/C [64]: 5.33%
viability, T/C [65]: 2.49%
viability, T/C [66]: 1.47%
viability, T/C [67]: 65.3%
viability, T/C [68]: 22.4%
viability, T/C [69]: 7.03%
viability, T/C [70]: 4.31%
viability, T/C [71]: 2.68%
viability, T/C [72]: 1.47%

IC50 (second compound 0.000949 µM): < 0.949 nM
IC50 (second compound 0.003 µM): 1.31 nM
IC50 (second compound 0.00949 µM): < 0.949 nM
IC50 (second compound 0.03 µM): 1.25 nM
IC50 (second compound 0.0949 µM): 1.02 nM
IC50 (second compound 0.3 µM): 1.15 nM
Structure (SMILES): CC1(C)CCC(Nc2ncc(C(F)(F)F)c(-c3c[nH]c4c(P(C)(C)=O)c(C#N)ccc34)n2)CN1 (stereo not drawn) + CCn1c(-c2cccnc2C(C)OC)c2c3cc(ccc31)N1CCOC(CC(NC(=O)C(C(C)C)N(C)C(=O)C3(F)CCN(C(=O)C#CC(C)(C)N(C)C)CC3)C(=O)N3CCCC(N3)C(=O)OCC(C)(C)C2)C1
viability, T/C [37]: 36.9%
viability, T/C [38]: 19.5%
viability, T/C [39]: 10.7%
viability, T/C [40]: 8.99%
viability, T/C [41]: 8.61%
viability, T/C [42]: 7.56%
viability, T/C [43]: 60.5%
viability, T/C [44]: 22.8%
viability, T/C [45]: 14.4%
viability, T/C [46]: 9.79%
viability, T/C [47]: 9.1%
viability, T/C [48]: 8.13%
viability, T/C [49]: 49.8%
viability, T/C [50]: 19.5%
viability, T/C [51]: 12.2%
viability, T/C [52]: 9.39%
viability, T/C [53]: 9.09%
viability, T/C [54]: 6.88%
viability, T/C [55]: 59.3%
viability, T/C [56]: 21.2%
viability, T/C [57]: 12.3%
viability, T/C [58]: 8.37%
viability, T/C [59]: 9.21%
viability, T/C [60]: 7.47%
viability, T/C [61]: 52.1%
viability, T/C [62]: 22%
viability, T/C [63]: 9.91%
viability, T/C [64]: 7.89%
viability, T/C [65]: 8.73%
viability, T/C [66]: 7.62%
viability, T/C [67]: 55.7%
viability, T/C [68]: 22.5%
viability, T/C [69]: 9.85%
viability, T/C [70]: 9.41%
viability, T/C [71]: 8.24%
viability, T/C [72]: 6.74%

IC50 (second compound 0.00316 µM): < 3.16 nM
IC50 (second compound 0.01 µM): < 3.16 nM
IC50 (second compound 0.0316 µM): < 3.16 nM
IC50 (second compound 0.1 µM): < 3.16 nM
IC50 (second compound 0.316 µM): < 3.16 nM
IC50 (second compound 1 µM): < 3.16 nM
Structure (SMILES): Nc1ccn(C2OC(CO)C(O)C2(F)F)c(=O)n1 (stereo not drawn) + C=CC(=O)N1CCN(c2nc(OCC3CCCN3C)nc3c(F)c(-c4nc(N)cc(C)c4C(F)(F)F)c(Cl)cc23)C(C)C1
viability, T/C [1]: 21.5%
viability, T/C [2]: 7.36%
viability, T/C [3]: 6.2%
viability, T/C [4]: 4.92%
viability, T/C [5]: 5.23%
viability, T/C [6]: 5.62%
viability, T/C [7]: 17%
viability, T/C [8]: 6.27%
viability, T/C [9]: 5.91%
viability, T/C [10]: 5.09%
viability, T/C [11]: 5.47%
viability, T/C [12]: 5.2%
viability, T/C [13]: 21.6%
viability, T/C [14]: 6.92%
viability, T/C [15]: 6.95%
viability, T/C [16]: 5.38%
viability, T/C [17]: 5.08%
viability, T/C [18]: 4.96%
viability, T/C [19]: 22.6%
viability, T/C [20]: 6.48%
viability, T/C [21]: 4.56%
viability, T/C [22]: 4.77%
viability, T/C [23]: 4.97%
viability, T/C [24]: 4.84%
viability, T/C [25]: 19.2%
viability, T/C [26]: 8.3%
viability, T/C [27]: 4.99%
viability, T/C [28]: 5.68%
viability, T/C [29]: 6.7%
viability, T/C [30]: 4.81%
viability, T/C [31]: 22.9%
viability, T/C [32]: 6.24%
viability, T/C [33]: 4.96%
viability, T/C [34]: 6.96%
viability, T/C [35]: 7.44%
viability, T/C [36]: 5.82%
